Reference: US7091025B2, “Malathion carboxylesterase” (priority 1995, dated 2006)
Read-outs that look alike come from different tables or passages of the source.

Key:
[1] = test system: adult female L. cuprina; format: in vivo; conditions: for RF (Dz/para R): ratio of the LD50 of Llandillo 103 with the LD50 of LS2 / RF (Mal R): ratio of the LD50 of Woodside 5.2 with the LD50 of LS2: L. cuprina, NS = not significantly different from unity; for LD50 LS2 (OP Susceptible), with 95% confidence limits: strain LS2, topical in dioctylphthalate; for LD50 LS2 (OP Susceptible), with 95% confidence limits / LD50 Llandillo 103 (Dz/para Resistant), with 95% confidence limits / LD50 Woodside 5.2 (Mal Resistant), with 95% confidence limits: mortality at 24 hours; for LD50 Llandillo 103 (Dz/para Resistant), with 95% confidence limits: strain Llandillo 103, topical; for LD50 Woodside 5.2 (Mal Resistant), with 95% confidence limits: strain Woodside 5.2, topical
Excerpt: (§1) The following organophosphorus compounds were used: diazinon (O,O-diethyl O-2-isopropyl-6-methylpyrimidin-4-yl phosphorothioate, 91%, Mallinckrodt), parathion-methyl (O,O-dimethyl O-4-nitrophenyl phosphorothioate, 97.0%, Bayer), parathion (O,O-diethyl O-4-nitrophenyl phosphorothioate, 99%, Pestanal grade, Riedel-de-Haën), fenthion (O,O-dimethyl O-[3-methyl-4-(methylthio)phenyl]phosphorothioate, 98.8%, Bayer), fenthion-ethyl (O,O-diethyl O-[3-methyl-4-(methylthio)phenyl] phosphorothioate, a gift from Dr. G. Levot), dichlorvos (2,2-dichlorovinyl dimethyl phosphate, 99%, Chem Service), diethyl-dichlorvos (2,2-dichlorovinyl diethyl phosphate, a gift from Dr. J. Desmarchelier), di-isopropyl-dichlorvos (2,2-dichlorovinyl di-isopropyl phosphate, a gift from Dr. J. Desmarchelier), malathion (S-1,2-bis(ethoxycarbonyl)ethyl O,O-dimethyl phosphorodithioate, technical grade, Nufarm), isopropyl malathion (S-1,2-bis(ethoxycarbonyl)ethyl O,O-di-isopropyl phosphorodithioate, a gift from Dr. J. Desmarchelier).
(§2) The toxicity of OPs in adult female L. cuprina was determined 3 or 4 days post-eclosion by application of OPs to the scutellum in 0.7 μl dioctylphthalate (Busvine, J. R., Bell, J. D. and Guneidy, A. M., Bulletin of Entomological Research 54: 589, 1963;; Townsend, M. G. and Busvine, J. R., Entomology Experimental and Applied 12: 243, 1969). Each OP was applied to at least 20 flies at each of at least 5 different concentrations, spanning the dose causing 50% mortality (LD50). Control groups were treated with solvent but no OP. Mortality was determined 24 hours later. Data were fitted to the probit curve using the Probit Or LOgit (POLO-PC) computer program (LeOra Software, 1987).

[2] = test system: adult L. cuprina, Llandillo 103 strain (Dz/para Resistant); experiment: toxicity of OPs in adult female L. cuprina, Llandillo 103 strain; format: in vivo, Lucilia cuprina
Excerpt: as §1, §2
(§3) LD50s of 10 OPs were determined for the Woodside 5.2 strain (homozygous for a malathion resistance allele of LcαE7) and the Llandillo 103 strain (homozygous for a parathion/diazinon resistance allele of LcαE7). LD50s were also determined for the OP susceptible LS2 strain in order to calculate resistance factors (Table 8).

[3] = test system: M. domestica; conditions: Bell and Busvine 1967; Townsend and Busvine 1969; cited from earlier work
[4] = test system: CCCC(=O)Oc1cccc2ccccc12; experiment: α-naphthyl butyrate hydrolysis, expressed malathion susceptible LcαE7 product; format: biochemical, Lucilia cuprina; conditions: other: α-NB 6-200 μM, 25° C., pH 8.0
Procedure: (§4) The in vitro expression of the OP susceptible allele of LcαE7 (clone Lc743) is described in patent application PCT/AU 95/00016 (“Enzyme based bioremediation”).
(§5) The initial rates of reactions between cell extracts containing the expressed products of the malathion resistant and susceptible LcαE7 alleles and α-naphthyl acetate (α-NA) were determined at 25° C. using a recording spectrophotometer and the method of Mastrapaolo and Yourno (Analytical Biochemistry 115: 188, 1981). 6–200 μM α-NA dissolved in 10 μl of 2-methoxyethanol was added to 0.1 M Tris-HCl pH 8.0 (980 μl) in a quartz cuvette. α-Naphthyl acetate is slowly hydrolysed in water so a background rate was recorded before starting the enzymic reaction by the addition of 10 μl of diluted cell extract. Control reactions were performed with extracts of both uninfected cells and Bacpac 6 infected cells.
As described above for α-NA hydrolysis except that 6–200 μM α-naphthyl butyrate (α-NB) was used instead of α-NA.
(§6) Km and Vmax were calculated for both enzymes. Kcat was then calculated from the Vmax and the molarity of the LcαE7 products in their respective cell extracts (determined above).

[5] = test system: CC(=O)Oc1cccc2ccccc12; experiment: α-naphthyl acetate hydrolysis, expressed malathion susceptible LcαE7 product; format: biochemical, Lucilia cuprina; conditions: other: α-NA 6-200 μM, 25° C., pH 8.0
Procedure: as §4, §5, §6

[6] = test system: Lucilia cuprina LcαE7 (esterase E3) gene product, OP-susceptible allele (LS2); conditions: described in PCT/AU 95/00016; cited from earlier work
[7] = molecular target: Lucilia cuprina LcαE7 (esterase E3) gene product, malathion resistant allele, Trp to Leu at position 251 (Lucilia cuprina, UniProt Q25252, W251L); experiment: chlorfenvinphos hydrolysis, expressed malathion resistant LcαE7 product; format: biochemical; conditions: 75 μM CVP
Procedure: The malathion resistant Lcα7 full-length cDNA was cloned into the baculovirus transfer vector, Bacpac 6 (Clonetech) 3′ of the polyhedrin promoter. Transfections were conducted using a lipofection method with DOTAP (Boehringer Mannheim) as per King and Possee (The Baculovirus Expression System: A Laboratory Guide, Chapman & Hall, London, 1992). One μg of DNA of each of the resulting constructs together with 200 ng of Bacpac 6 baculovirus DNA (Clonetech), linearised by digestion with the restriction enzyme BSU 36I (Promega), was incubated in a solution of HBS (hepes buffered saline) containing 15% DOTAP (Boehringer Mannheim) in a polystyrene container at room temperature for 10 minutes. The solution was then used to transfect a single well of a six well tissue culture plate pre-seeded 2 hrs previously with 10^4 Sf9 (Spodoptera frugiperda) cells in 1.5 mls Grace's medium (King and Possee, The Baculovirus Expression System: A Laboratory Guide, Chapman & Hall, London, 1992). After 12 hours, the medium was replaced with 3 mls of Grace's medium containing 10% fetal calf serum. Construct plus DOTAP, linearised virus plus DOTAP and DOTAP only controls were conducted in parallel with transfections. The transfections were harvested 4–5 days after infection and the cells isolated by centrifugation at 500 g for 5 minutes. […]

[8] = test system: malathion carboxylesterase (MCE) purified from malathion resistant strains of L. cuprina; conditions: cited from earlier work
[9] = molecular target: Lucilia cuprina LcαE7 (esterase E3) gene product, malathion resistant allele (strain RM-8), Trp to Leu at position 251 (Lucilia cuprina, UniProt Q25252, W251L); experiment: malathion hydrolysis (MCE activity), expressed malathion resistant LcαE7 product; format: biochemical; conditions: malathion 2.5-100 μM, 25° C., pH 7.0
[10] = molecular target: Lucilia cuprina LcαE7 (esterase E3) gene product, malathion susceptible allele (strain LS2; clone Lc743), Trp at position 251 (Lucilia cuprina, UniProt Q25252); experiment: malathion hydrolysis (MCE activity), expressed malathion susceptible LcαE7 product; format: biochemical; conditions: malathion 2.5-100 μM, 25° C., pH 7.0
[11] = test system: malathion carboxylesterase (MCE) purified from malathion resistant strains of L. cuprina; conditions: purified MCE (Whyard and Walker 1994); cited from earlier work
[12] = test system: CCCC(=O)Oc1cccc2ccccc12; experiment: α-naphthyl butyrate hydrolysis, expressed malathion resistant LcαE7 product; format: biochemical, Lucilia cuprina; conditions: other: α-NB 6-200 μM, 25° C., pH 8.0
Procedure: (§7) The malathion resistant Lcα7 full-length cDNA was cloned into the baculovirus transfer vector, Bacpac 6 (Clonetech) 3′ of the polyhedrin promoter. Transfections were conducted using a lipofection method with DOTAP (Boehringer Mannheim) as per King and Possee (The Baculovirus Expression System: A Laboratory Guide, Chapman & Hall, London, 1992). One μg of DNA of each of the resulting constructs together with 200 ng of Bacpac 6 baculovirus DNA (Clonetech), linearised by digestion with the restriction enzyme BSU 36I (Promega), was incubated in a solution of HBS (hepes buffered saline) containing 15% DOTAP (Boehringer Mannheim) in a polystyrene container at room temperature for 10 minutes. […]
as §5, with “Control reactions were performed with extracts of both uninfected cells and Bacpac 6 infected cells.” left out
(§8) Km and Vmax were calculated for both enzymes. […]

[13] = test system: CC(=O)Oc1cccc2ccccc12; experiment: α-naphthyl acetate hydrolysis, expressed malathion resistant LcαE7 product; format: biochemical, Lucilia cuprina; conditions: other: α-NA 6-200 μM, 25° C., pH 8.0
Procedure: as §7
as §5, with “Control reactions were performed with extracts of both uninfected cells and Bacpac 6 infected cells.” left out
as §8

[14] = test system: malathion carboxylesterase (MCE) purified from malathion resistant strains of L. cuprina; conditions: purified MCE (Whyard and Walker 1994); cited from earlier work; remark: listed apart in the source
[15] = test system: adult L. cuprina, Woodside 5.2 strain (Mal Resistant); format: in vivo, Lucilia cuprina; conditions: Woodside 5.2
Excerpt: as §1, §2, §3

[16] = purified MCE (Whyard et al. 1994)

Lucilia cuprina LcαE7 (esterase E3) gene product, malathion susceptible allele (strain LS2; clone Lc743), Trp at position 251, sequence (Q25252 entry or part of it): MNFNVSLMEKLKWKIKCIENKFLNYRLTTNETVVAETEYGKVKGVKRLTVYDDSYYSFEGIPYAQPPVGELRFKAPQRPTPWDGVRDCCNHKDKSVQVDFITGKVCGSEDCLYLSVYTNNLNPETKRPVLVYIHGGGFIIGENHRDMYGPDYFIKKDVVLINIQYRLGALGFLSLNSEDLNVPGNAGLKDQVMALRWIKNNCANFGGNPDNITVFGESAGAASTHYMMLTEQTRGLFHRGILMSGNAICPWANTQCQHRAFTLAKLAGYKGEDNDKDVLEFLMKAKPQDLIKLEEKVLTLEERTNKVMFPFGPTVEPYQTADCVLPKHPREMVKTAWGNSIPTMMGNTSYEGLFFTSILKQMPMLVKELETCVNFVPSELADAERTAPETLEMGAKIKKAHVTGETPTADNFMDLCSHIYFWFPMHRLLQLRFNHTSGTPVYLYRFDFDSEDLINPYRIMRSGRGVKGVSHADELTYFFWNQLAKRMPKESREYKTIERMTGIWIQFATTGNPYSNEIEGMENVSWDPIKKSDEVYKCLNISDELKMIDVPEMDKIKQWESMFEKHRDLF

Compound: CCOP(=O)(OC=C(Cl)Cl)OCC [Ethyl Dichlorvos, 2,2-dichlorovinyl diethyl phosphate]
- RF (Dz/para R): ratio of the LD50 of Llandillo 103 with the LD50 of LS2 [1]: 7
- RF (Mal R): ratio of the LD50 of Woodside 5.2 with the LD50 of LS2 [1]: 3
- LD50 LS2 (OP Susceptible), with 95% confidence limits [1]: 360 (300–420), ng/fly
- LD50 Llandillo 103 (Dz/para Resistant), with 95% confidence limits [1]: 2370 (2320–2410), ng/fly
- LD50 Woodside 5.2 (Mal Resistant), with 95% confidence limits [1]: 1100 (700–1500) ng/fly
- resistance factor towards diethyl OP vs its dimethyl analogue [2]: about two-fold greater resistance factors

Compound: CCOP(=S)(OCC)Oc1ccc([N+](=O)[O-])cc1 [Parathion, O,O-diethyl O-4-nitrophenyl phosphorothioate]
- Resistance factor of M. domestica (in parentheses), Dz/para resistance type [3]: 35
- Resistance factor of M. domestica (in parentheses), malathion resistance type [3]: 3
- RF (Dz/para R): ratio of the LD50 of Llandillo 103 with the LD50 of LS2 [1]: 20
- RF (Mal R): ratio of the LD50 of Woodside 5.2 with the LD50 of LS2 [1]: 6
- LD50 LS2 (OP Susceptible), with 95% confidence limits [1]: 52 (48–55), ng/fly
- LD50 Llandillo 103 (Dz/para Resistant), with 95% confidence limits [1]: 1050 (890–1280), ng/fly
- LD50 Woodside 5.2 (Mal Resistant), with 95% confidence limits [1]: 290 (270–310), ng/fly
- resistance factor towards diethyl OP vs its dimethyl analogue [2]: about two-fold greater resistance factors

Compound: Lucilia cuprina LcαE7 (esterase E3) gene product, malathion susceptible allele (strain LS2; clone Lc743), Trp at position 251 (Lucilia cuprina)
- Km [4]: 20 ± 5 µM
- kcat [4]: 300 ± 33.3 s⁻¹
- Km [5]: 70 ± 5 µM
- kcat [5]: 183 ± 5 s⁻¹

Compound: CCOP(=O)(OCC)OC(=CCl)c1ccc(Cl)cc1Cl [CVP, chlorfenvinphos]
- CVP / diethyl OP hydrolytic activity [6]: undetectable
- turnover, fold less than that of the diazinon resistant (RM2-6) gene product [7]: approximately 50 fold
- turnover (hydrolytic activity) ([7]; 30° C., pH 7.0): about 1.2 hour^−1

Compound: CCOP(=S)(OCC)Oc1ccc(SC)c(C)c1 [Fenthion-ethyl, O,O-diethyl O-[3-methyl-4-(methylthio)phenyl] phosphorothioate]
- RF (Dz/para R): ratio of the LD50 of Llandillo 103 with the LD50 of LS2 [1]: 2
- RF (Mal R): ratio of the LD50 of Woodside 5.2 with the LD50 of LS2 [1]: 2
- LD50 LS2 (OP Susceptible), with 95% confidence limits [1]: 330 (290–370) ng/fly
- LD50 Llandillo 103 (Dz/para Resistant), with 95% confidence limits [1]: 690 (570–830) ng/fly
- LD50 Woodside 5.2 (Mal Resistant), with 95% confidence limits [1]: 730 (660–870) ng/fly
- resistance factor towards diethyl OP vs its dimethyl analogue [2]: no significant difference

Compound: CCOC(=O)CC(SP(=S)(OC)OC)C(=O)OCC (stereo not drawn) [malathion, S-1,2-bis(ethoxycarbonyl)ethyl O,O-dimethyl phosphorodithioate]
- Kcat ([8]; purified MCE (Whyard and Walker 1994)): 46±2 per min
- Km [8, 16]: 11 ± 0.4 µM
- Vmax [8, 16]: 775±28 nmol malathion/min/mg
- kcat (turnover number) [8, 16]: 0.767 s⁻¹
- Kcat [9]: 0.717 ± 0.017 s⁻¹
- Km [9]: 21 ± 1 µM
- Kcat [10]: 1.17 ± 0.183 s⁻¹
- Km [10]: 200 ± 30 µM

Compound: CC(=O)Oc1cccc2ccccc12 [α-naphthyl acetate]
- Kcat [11]: 2063 per min
- Km [11]: 167 ± 14 µM

Compound: Lucilia cuprina LcαE7 (esterase E3) gene product, malathion resistant allele (strain RM-8), Trp to Leu at position 251 (Lucilia cuprina; W251L)
- Km [12]: 29 ± 4 µM
- kcat [12]: 150 ± 6.67 s⁻¹
- Km [13]: 150 ± 50 µM
- kcat [13]: 37.8 ± 0.5 s⁻¹

Compound: CCCC(=O)Oc1cccc2ccccc12 [α-naphthyl butyrate]
- Kcat [14]: 3700 per min
- Km [14]: 39 ± 4 µM

Compound: COP(=S)(OC)Oc1ccc([N+](=O)[O-])cc1 [Parathion-methyl, O,O-dimethyl O-4-nitrophenyl phosphorothioate]
- resistance factor towards dimethyl OP vs its diethyl analogue [15]: about two- to five-fold greater resistance factors
- Resistance factor of M. domestica (in parentheses), Dz/para resistance type [3]: 9
- Resistance factor of M. domestica (in parentheses), malathion resistance type [3]: 10
- RF (Dz/para R): ratio of the LD50 of Llandillo 103 with the LD50 of LS2 [1]: 12
- RF (Mal R): ratio of the LD50 of Woodside 5.2 with the LD50 of LS2 [1]: 27
- LD50 LS2 (OP Susceptible), with 95% confidence limits [1]: 16 (11–20), ng/fly
- LD50 Llandillo 103 (Dz/para Resistant), with 95% confidence limits [1]: 185 (141–244), ng/fly
- LD50 Woodside 5.2 (Mal Resistant), with 95% confidence limits [1]: 430 (390–490), ng/fly
